The record followed here is ChEMBL document CHEMBL4513141, “CO-ADD screening of NIH (USA) - Clinical Collection” (2021).

Molecules are shown by their SMILES. In brackets after ≈: the same amount, converted by molar mass. Where a name gives a salt, the structure may show the parent alone.

Test [1] has as its system Cryptococcus neoformans.
Description: Antifungal activity against Cryptococcus neoformans H99 ATCC 208821 (CO-ADD:FG_002); MIC in YNB media using NBS plates, by Resazurin OD(600-570)
In test [2] the test system is HEK293. In words: cells. The test is classed as functional, Homo sapiens, ATCC CRL1573. Conditions: ASSAY_TEST Inhibition of Cell Viability, detection method Resazurin, Fluorescence (ex560/em590), MEDIA DMEM with 10% FBS, plate type 384well, TC, CORNING #3712, time 18 hr. Background: Resazurin is reduced to fluorescent resorufin, in cell work by metabolically active cells.

For test [3], the system named is Escherichia coli. The test can be described thus: microbe, parasite or virus in culture. To be noted: ATCC 25922, 18 h, ASSAY_TEST Inhibition of Bacterial Growth, detection method Absorption (OD600), MEDIA CAMHB, plate type 384well, NBS, CORNING #3640.
Description: Antibacterial activity against Escherichia coli ATCC 25922 (CO-ADD:GN_001); MIC in CAMBH media using NBS plates, by OD(600)
Test [4] has as its system Staphylococcus aureus. In words: microbe, parasite or virus in culture. Conditions: ATCC 43300, 18 h, ASSAY_TEST Inhibition of Bacterial Growth, detection method Absorption (OD600), MEDIA CAMHB, plate type 384well, NBS, CORNING #3640.
Description: Antibacterial activity against Staphylococcus aureus MRSA ATCC 43300 (CO-ADD:GP_020); MIC in CAMBH media, using NBS plates, by OD(600)
The test system of test [5] is Klebsiella pneumoniae. In words: microbe, parasite or virus in culture. Conditions: ATCC 700603, 18 h, ASSAY_TEST Inhibition of Bacterial Growth, detection method Absorption (OD600), MEDIA CAMHB, plate type 384well, NBS, CORNING #3640.
Description: Antibacterial activity against Klebsiella pneumoniae MDR ATCC 70063 (CO-ADD:GN_003); MIC in CAMBH media using NBS plates, by OD(600)
Test [6] deals with Candida albicans. In words: microbe, parasite or virus in culture. Conditions: ATCC 90028, ASSAY_TEST Inhibition of Fungal Growth, detection method Absorption (OD530), plate type 384well, NBS, CORNING #3640.
Description: Antifungal activity against Candida albicans ATCC 90028 (CO-ADD:FG_001); MIC in YNB media using NBS plates, by OD630
Test [7] has as its system Pseudomonas aeruginosa. The test can be described thus: microbe, parasite or virus in culture. Conditions: ATCC 27853, 18 h, ASSAY_TEST Inhibition of Bacterial Growth, detection method Absorption (OD600), MEDIA CAMHB, plate type 384well, NBS, CORNING #3640.
Description: Antibacterial activity against Pseudomonas aeruginosa ATCC 27853 (CO-ADD:GN_042); MIC in CAMBH media using NBS plates, by OD(600)
The test system of test [8] is Acinetobacter baumannii. The test can be described thus: microbe, parasite or virus in culture. To be noted: ATCC 19606, 18 h, ASSAY_TEST Inhibition of Bacterial Growth, detection method Absorption (OD600), MEDIA CAMHB, plate type 384well, NBS, CORNING #3640.
Description: Antibacterial activity against Acinetobacter baumannii ATCC 19606 (CO-ADD:GN_034); MIC in CAMBH media using NBS plates, by OD600
The mark [9] stands for this setting: Homo sapiens, ATCC CRL1573, HEK293.

As for `Clc1ccc(COC(Cn2ccnc2)c2ccc(Cl)cc2Cl)c(Cl)c1` (stereo not drawn) [MICONAZOLE NITRATE], the MIC was 0.625 µM in test [1]; above 10 µM in test [3]; above 10 µM in test [4]; above 10 µM in test [5]; at most 0.0781 µM in test [6]; above 10 µM in test [7]. Also, the MIC in test [8] is above 10 µM. For the same compound, the CC50 – broadly, the concentration giving 50% cytotoxicity – in test [2] (setting [9]) is above 10 µM.
In the case of `COc1ccc2[nH]c([S+]([O-])Cc3ncc(C)c(OC)c3C)nc2c1` (stereo not drawn) [OMEPRAZOLE MAGNESIUM], the MIC in test [1], in test [3], in test [4], in test [5], in test [6] and in test [7] was above 10 µM each time. In test [8], this compound yielded an MIC above 10 µM. The CC50 in test [2] (setting [9]) is above 10 µM.
On to `Oc1c(Cl)cc(Cl)c2cccnc12` [CHLOROXINE], for which the MIC in test [1] was 2.5 µM (≈ 0.535 µg/mL); in test [3] it was above 10 µM; in test [4] it was above 10 µM; in test [5], above 10 µM; in test [6] it was 1.25 µM (≈ 0.268 µg/mL); in test [7], above 10 µM. Also, the MIC in test [8] was above 10 µM. This compound registered a CC50 in test [2] (setting [9]) above 10 µM.
On to `O=C(NC(CO)C(O)c1ccc([N+](=O)[O-])cc1)C(Cl)Cl` (stereo not drawn), for which the MIC in test [1] is above 10 µM; in test [3], 10 µM (≈ 3.23 µg/mL); in test [4], above 10 µM; in test [5], above 10 µM; in test [6] it was above 10 µM; in test [7] it was above 10 µM. The same compound showed an MIC in test [8] above 10 µM. The compound also displayed a CC50 in test [2] (setting [9]) above 10 µM.
As for `C/C(=C\C(=O)OCCCCCCCCC(=O)O)C[C@@H]1OC[C@H](C[C@@H]2O[C@H]2[C@@H](C)[C@H](C)O)[C@@H](O)[C@H]1O` [MUPIROCIN], the MIC in test [1] was above 10 µM; in test [3], above 10 µM; in test [4], 0.312 µM (≈ 0.156 µg/mL); in test [5] it was above 10 µM; in test [6] it was 10 µM (≈ 5.01 µg/mL); in test [7], above 10 µM. In test [8], this compound gave an MIC above 10 µM. Further, in test [2] (setting [9]), the CC50 is above 10 µM.
For the compound `CCc1nc(N)nc(N)c1-c1ccc(Cl)cc1` [PYRIMETHAMINE], the MIC is above 10 µM in test [1]; above 10 µM in test [3]; 5 µM (≈ 1.24 µg/mL) in test [4]; above 10 µM in test [5]; above 10 µM in test [6]; above 10 µM in test [7]. The MIC in test [8] is above 10 µM. The same compound yielded a CC50 in test [2] (setting [9]) above 10 µM.
Consider `CC(=O)N1CCN(c2ccc(OCC3COC(Cn4ccnc4)(c4ccc(Cl)cc4Cl)O3)cc2)CC1` (stereo not drawn) [KETOCONAZOLE], for which the MIC in test [1] was 2.5 µM (≈ 1.33 µg/mL); in test [3] it was above 10 µM; in test [4] it was above 10 µM; in test [5], above 10 µM; in test [6] it was 0.156 µM (≈ 0.0831 µg/mL); in test [7], above 10 µM. In test [8], this compound showed an MIC above 10 µM. In test [2] (setting [9]), the CC50 is above 10 µM.
For the compound `NC(=O)c1ncn(C2OC(CO)C(O)C2O)n1` (stereo not drawn), the MIC in test [1], in test [3], in test [4], in test [5], in test [6] and in test [7] was above 10 µM each time. This compound also registered an MIC in test [8] above 10 µM. In test [2] (setting [9]), the CC50 was above 10 µM.
In the case of `O=c1[nH]cnc2c1ncn2[C@H]1CC[C@@H](CO)O1` [DIDANOSINE], the MIC in test [1], in test [3], in test [4], in test [5], in test [6] and in test [7] was above 10 µM in each case. The MIC in test [8] is above 10 µM. This compound registered a 50% cytotoxic concentration (CC50) in test [2] (setting [9]) above 10 µM.
With `CC(=O)NC[C@H]1CN(c2ccc(N3CCOCC3)c(F)c2)C(=O)O1` [LINEZOLID], the MIC in test [1] is above 10 µM; in test [3], above 10 µM; in test [4] it was 2.5 µM (≈ 0.843 µg/mL); in test [5], above 10 µM; in test [6] it was above 10 µM; in test [7] it was above 10 µM. For the same compound, in test [8], the MIC is above 10 µM. This compound displayed a CC50 in test [2] (setting [9]) of 4.46 µM.
As to `C=CC1=C(C(=O)O)N2C(=O)[C@@H](NC(=O)/C(=N\O)c3csc(N)n3)[C@H]2SC1`, the MIC in test [1] was above 10 µM; in test [3], 2.5 µM (≈ 0.989 µg/mL); in test [4], 5 µM (≈ 1.98 µg/mL); in test [5], 10 µM (≈ 3.95 µg/mL); in test [6] it was above 10 µM; in test [7], above 10 µM. The MIC in test [8] was above 10 µM. This compound returned a CC50 in test [2] (setting [9]) above 10 µM.
`COCc1c(C(C)C)nc(C(C)C)c(/C=C/[C@@H](O)C[C@@H](O)CC(=O)O)c1-c1ccc(F)cc1` [CERIVASTATIN SODIUM]: the MIC was 5 µM in test [1]; above 10 µM in test [3]; above 10 µM in test [4]; above 10 µM in test [5]; 5 µM in test [6]; above 10 µM in test [7]. In test [8], this compound showed an MIC above 10 µM. Besides, in test [2] (setting [9]), the CC50 is above 10 µM.
As to `CCOc1ccc2ccccc2c1C(=O)N[C@@H]1C(=O)N2[C@@H]1SC(C)(C)[C@@H]2C(=O)O` [NAFCILLIN SODIUM], the MIC in test [1] is above 10 µM; in test [3], above 10 µM; in test [4], 1.25 µM; in test [5], above 10 µM; in test [6], above 10 µM; in test [7], above 10 µM. This compound also showed an MIC in test [8] above 10 µM. In test [2] (setting [9]), this compound had a CC50 above 10 µM.
As to `COc1cc2nc(N3CCN(C(=O)c4ccco4)CC3)nc(N)c2cc1OC`, the MIC in test [1], in test [3], in test [4], in test [5], in test [6] and in test [7] was above 10 µM throughout. The MIC in test [8] is above 10 µM. Further, the cytotoxic concentration (CC50) in test [2] (setting [9]) is above 10 µM.
For the compound `Cc1onc(-c2ccccc2)c1C(=O)NC1C(=O)N2C1SC(C)(C)C2C(=O)O` (stereo not drawn), the MIC in test [1], in test [3], in test [4], in test [5], in test [6] and in test [7] was above 10 µM throughout. In test [8], this compound came in with an MIC above 10 µM. For the same compound, in test [2] (setting [9]), the CC50 is above 10 µM.
Turning to `CC(=O)[C@]1(O)Cc2c(O)c3c(c(O)c2[C@@H](O[C@H]2C[C@H](N)[C@H](O)[C@H](C)O2)C1)C(=O)c1ccccc1C3=O` [IDARUBICIN HYDROCHLORIDE], the MIC in test [1] was above 10 µM; in test [3], above 10 µM; in test [4], 5 µM; in test [5], above 10 µM; in test [6] it was above 10 µM; in test [7], above 10 µM. Besides, the MIC in test [8] was above 10 µM. This compound also gave a CC50 in test [2] (setting [9]) above 10 µM.
With `CCc1c2c(nc3ccc(OC(=O)N4CCC(N5CCCCC5)CC4)cc13)-c1cc3c(c(=O)n1C2)COC(=O)[C@]3(O)CC` [IRINOTECAN HYDROCHLORIDE], the MIC in test [1], in test [3], in test [4], in test [5], in test [6] and in test [7] was above 10 µM in each case. Moreover, the MIC in test [8] is above 10 µM. Besides, the CC50 in test [2] (setting [9]) is 0.341 µM.
For the compound `CN(C)c1ccc(O)c2c1C[C@H]1C[C@H]3[C@H](N(C)C)C(O)=C(C(N)=O)C(=O)[C@@]3(O)C(O)=C1C2=O` [MINOCYCLINE HYDROCHLORIDE], the MIC in test [1] is above 10 µM; in test [3], 2.5 µM; in test [4], 0.312 µM; in test [5], above 10 µM; in test [6], above 10 µM; in test [7], 0.312 µM. In test [8], this compound returned an MIC above 10 µM. In test [2] (setting [9]), this compound had a CC50 of 0.0983 µM.
On to `Clc1ccccc1C(c1ccccc1)(c1ccccc1)n1ccnc1` [CLOTRIMAZOLE], for which the MIC was 1.25 µM (≈ 0.431 µg/mL) in test [1]; above 10 µM in test [3]; above 10 µM in test [4]; above 10 µM in test [5]; 0.156 µM (≈ 0.0539 µg/mL) in test [6]; above 10 µM in test [7]. Besides, the MIC in test [8] is above 10 µM. Further, the CC50 in test [2] (setting [9]) is above 10 µM.
`CC(C)/N=c1\cc2n(-c3ccc(Cl)cc3)c3ccccc3nc-2cc1Nc1ccc(Cl)cc1` [CLOFAZIMINE]: the MIC in test [1], in test [3], in test [4], in test [5], in test [6] and in test [7] was above 10 µM in each case. The compound also registered an MIC in test [8] above 10 µM. In test [2], this compound showed a CC50 of 0.31 µM.
Turning to `Cc1noc(NS(=O)(=O)c2ccc(N)cc2)c1C` [SULFISOXAZOLE], the MIC in test [1], in test [3], in test [4], in test [5], in test [6] and in test [7] was above 10 µM in each case. Moreover, the MIC in test [8] was above 10 µM. The same compound registered a CC50 in test [2] (setting [9]) above 10 µM.
